What was measured:
Rattus norvegicus = experiment: Antiinflammatory activity in Long Evans rat assessed as reduction of carrageenan-induced pedal edema at 200 mg/kg, po administered 1 hr prior to carrageenan challenge measured after 3 hrs relative to control; format: functional; design: scale not given: the % may be the effect or the level left
[1] = Toxicity in mouse assessed as overt effects; format: organism-based; settings: in vivo

Row | Compound | Activity (Rattus norvegicus) | LD50 [1]
1 | N#Cc1c(N)c(Cl)c(Cl)c(C#N)c1Cl | 25% | > 300 mg/kg
2 | N#Cc1cccc(C#N)c1 | 35% | 178 mg/kg
3 | N#Cc1c(Cl)c(C#N)c(Nc2ccc(Br)cc2)c(C#N)c1Cl | 14% | 300 mg/kg
4 | CNc1c(Cl)c(Cl)c(C#N)c(Cl)c1C#N | 22% | > 300 mg/kg
5 | CCCCNc1c(Cl)c(Cl)c(C#N)c(Cl)c1C#N | 17% | > 300 mg/kg
6 | C=CCNc1c(Cl)c(Cl)c(C#N)c(Cl)c1C#N | 17% | > 300 mg/kg
7 | CCCCC(CC)CNc1c(Cl)c(Cl)c(C#N)c(Cl)c1C#N (stereo not given) | 0% | > 300 mg/kg
8 | CC(=O)Oc1c(Cl)c(Cl)c(C#N)c(Cl)c1C#N | 25% | 237 mg/kg
9 | CCC(=O)Oc1c(Cl)c(Cl)c(C#N)c(Cl)c1C#N | 11% | 178 mg/kg
10 | CC(C)C(=O)Oc1c(Cl)c(Cl)c(C#N)c(Cl)c1C#N | 0% | 237 mg/kg
11 | CCCCCC(=O)Oc1c(Cl)c(Cl)c(C#N)c(Cl)c1C#N | 11% | > 300 mg/kg
12 | CCCCC(CC)C(=O)Oc1c(Cl)c(Cl)c(C#N)c(Cl)c1C#N (stereo not given) | 20% | > 300 mg/kg
13 | N#Cc1c(Cl)c(Cl)c(OC(=O)c2ccccc2)c(C#N)c1Cl | 11% | > 300 mg/kg
14 | N#Cc1cccc(C#N)c1Cl | 20% | 300 mg/kg
15 | N#Cc1c(Cl)cc(Cl)c(C#N)c1Cl | 8% | 100 mg/kg
16 | N#Cc1c(Cl)c(C#N)c(Nc2cccc(C(F)(F)F)c2)c(C#N)c1Cl | 29% | 237 mg/kg
17 | N#Cc1c(Cl)c(C#N)c(Nc2ccc(Cl)c(Cl)c2)c(C#N)c1Cl | – | 56 mg/kg
18 | CNc1c(C#N)c(Cl)c(C#N)c(NC)c1C#N | 20% | 300 mg/kg
19 | CCNc1c(C#N)c(Cl)c(C#N)c(NCC)c1C#N | 11% | 300 mg/kg

Row | Compound | Activity (Rattus norvegicus) | LD50 [1]
20 | CC(C)Nc1c(C#N)c(Cl)c(C#N)c(NC(C)C)c1C#N | 5% | 300 mg/kg
21 | N#Cc1cc(C#N)cc(C#N)c1 | 32% | 300 mg/kg
22 | CCC(=O)Oc1c(Cl)c(Cl)c(C#N)c(Cl)c1Cl | 0% | > 300 mg/kg
23 | CCCC(=O)Oc1c(Cl)c(Cl)c(C#N)c(Cl)c1Cl | 15% | > 300 mg/kg
24 | CC(C)C(=O)Oc1c(Cl)c(Cl)c(C#N)c(Cl)c1Cl | 0% | > 300 mg/kg
25 | CCCCC(=O)Oc1c(Cl)c(Cl)c(C#N)c(Cl)c1Cl | 2% | > 300 mg/kg
26 | CCCCCC(=O)Oc1c(Cl)c(Cl)c(C#N)c(Cl)c1Cl | 0% | > 300 mg/kg
27 | CCC(CC)C(=O)Oc1c(Cl)c(Cl)c(C#N)c(Cl)c1Cl | 11% | > 300 mg/kg
28 | CCCCCCCC(=O)Oc1c(Cl)c(Cl)c(C#N)c(Cl)c1Cl | 0% | > 300 mg/kg
29 | CCCCC(CC)C(=O)Oc1c(Cl)c(Cl)c(C#N)c(Cl)c1Cl (stereo not given) | 15% | > 300 mg/kg
30 | CCCCCCCCCCCC(=O)Oc1c(Cl)c(Cl)c(C#N)c(Cl)c1Cl | 11% | > 300 mg/kg
31 | N#Cc1c(Cl)c(Cl)c(OC(=O)C(Cl)(Cl)Cl)c(Cl)c1Cl | 17% | > 300 mg/kg
32 | N#Cc1c(Cl)c(Cl)c(OC(=O)Cc2ccccc2)c(Cl)c1Cl | 0% | > 300 mg/kg
33 | N#Cc1c(Cl)c(Cl)c(OC(=O)c2ccccc2Cl)c(Cl)c1Cl | 0% | > 300 mg/kg
34 | N#Cc1c(Cl)c(Cl)c(OC(=O)c2ccc(Cl)c(Cl)c2)c(Cl)c1Cl | 3% | > 300 mg/kg
35 | CC(C)S(=O)(=O)c1c(Cl)c(Cl)c(C#N)c(Cl)c1Cl | 11% | > 300 mg/kg
36 | CCCCS(=O)(=O)c1c(Cl)c(Cl)c(C#N)c(Cl)c1Cl | 12% | 237 mg/kg
37 | CCCCCS(=O)(=O)c1c(Cl)c(Cl)c(C#N)c(Cl)c1Cl | 5% | 237 mg/kg
38 | CCCCCCCCCCS(=O)(=O)c1c(Cl)c(Cl)c(C#N)c(Cl)c1Cl | 0% | > 300 mg/kg
